Tests used:
[1] = Dielectric strength measurement in a homogeneous field, relative to SF6; type: physicochemical
Description: The results are as follows, expressed in a relative manner as percentage of the dielectric strength of the reference gas SF6: • HCFO-1224yd(Z): 178%.
Its dielectric strength values (with an interelectrode distance of 12 mm) is then as follows, still with respect to SF6: • HCFO-1224yd(Z) at 17° C.: 159%.

[2] = Toxicity (statement, no method)
[3] = Flammability, thermal stability, saturated vapor pressure / condensation; type: physicochemical
[4] = prior art statement; cited from earlier work
[5] = prior art statement; cited from earlier work; remark: listed apart in the source

O=C=O [CO2, carbon dioxide, reference compound]
dielectric strength as % of that of SF6 ([1]; −15° C., 1.14 bar): 51%

FC(=CCl)C(F)(F)F [HCFO-1224yd(Z), 1-chloro-2,3,3,3-tetrafluoropropene]
dielectric strength as percentage of the dielectric strength of the reference gas SF6 ([1]; 20° C., 1.3 bar, homogeneous field, interelectrode distance 12 mm): 178% | dielectric strength with respect to SF6 ([1]; pure state, 17° C., 1.14 bar, interelectrode distance 12 mm): 159% | toxicity [2]: very low level of toxicity | flammability [3]: nonflammable | thermal stability [3]: thermally stable | minimum temperature of use in the pure state without condensation ([3]; pressure of 1.14 bar): 17 °C | saturated pressure ([3]; −15° C.): 0.29 bar

FS(F)(F)(F)(F)F [SF6, sulfur hexafluoride]
toxicity (background) [4]: nontoxic to man and animals | flammability (background) [5]: nonflammable

FC(F)(F)I [trifluoroiodomethane]
toxicity (background) [4]: category-3 carcinogenic, mutagenic and reprotoxic substances

From patent US11133139B2, “Use of 1-chloro-2,3,3,3-tetrafluoropropene for isolating or extinguishing electric arcs” (Arkema France, priority 2018, dated 2021)
